# In US6863833B1, “Microfabricated apertures for supporting bilayer lipid membranes” (The Board of Trustees of the Leland Stanford Junior …, priority 2001, dated 2005):
# Legend:
# [1] = biological target: staphylococcal α-hemolysin (αHL) channels (Staphylococcus aureus, UniProt P09616); format: biochemical
# [2] = Gramicidin D conductance change in lipid bilayer formed across nanoaperture; format: biochemical; settings: 5 to 20 μl of 2 mg/ml gD in ethanol added to each bath; within minutes; capacitance remained constant
# Description: Lipid bilayers were formed by the method of Montal and Mueller (1972). In practicing the Langmuir-Blodgett technique, one raises two lipid monolayers across an aperture, allowing the lipids to align their hydrophobic tail portions across the aperture so as to form a lipid bilayer. Because of the hydrophobic nature of the lipid tails, in order to form stable bilayers the surface of a BSP must also be hydrophobic. If the substrate is hydrophobic, the lipids can smoothly transition from coating the substrate to spanning the aperture. To reverse the wetting properties of the naturally hydrophilic silicon nitride, the silicon nitride was coated with an alkylsilane (octyltrichlorosilane). Application of this coating was quite simple and very effective. It was not found to be possible to form a bilayer with untreated devices. Use of longer carbon chain silanes or alternative-materials to make the surface even more hydrophobic would further increase bilayer stability.
# For smaller apertures, it was more difficult to observe the capacitance change the background. In this case, membrane-bound proteins that affect the electrical properties of the bilayer, such as carriers and ion channels, offered the best proof of the formation of a bilayer. The ion channel peptide Gramicidin D (gD), was chosen for ease of use and large conductance change. […]
# Chain of staphylococcal α-hemolysin (αHL) channels (P09616 27-319 limits assumed): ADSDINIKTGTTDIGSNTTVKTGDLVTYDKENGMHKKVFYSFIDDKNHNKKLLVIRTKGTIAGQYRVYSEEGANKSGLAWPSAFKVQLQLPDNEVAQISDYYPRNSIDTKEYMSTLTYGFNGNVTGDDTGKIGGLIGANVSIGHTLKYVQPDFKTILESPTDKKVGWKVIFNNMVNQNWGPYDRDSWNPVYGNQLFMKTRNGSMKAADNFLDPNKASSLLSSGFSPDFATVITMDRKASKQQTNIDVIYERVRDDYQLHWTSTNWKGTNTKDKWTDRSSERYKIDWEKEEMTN
compound,measurement,setting,value
"OC[C@H]1O[C@@H]2O[C@H]3[C@H](O)[C@@H](O)[C@@H](O[C@H]4[C@H](O)[C@@H](O)[C@@H](O[C@H]5[C@H](O)[C@@H](O)[C@@H](O[C@H]6[C@H](O)[C@@H](O)[C@@H](O[C@H]7[C@H](O)[C@@H](O)[C@@H](O[C@H]8[C@H](O)[C@@H](O)[C@@H](O[C@H]1[C@H](O)[C@H]2O)O[C@@H]8CO)O[C@@H]7CO)O[C@@H]6CO)O[C@@H]5CO)O[C@@H]4CO)O[C@@H]3CO [βCD, β-cyclodextrin]",current reduction when a channel becomes blocked,[1],70±4%
Gramicidin D,conductance of the bilayer,[2],dramatically increased
